# Laboratory results: patent US20110311601A1, “ANTIMICROBIAL MEDICAL DEVICES” (priority 2010, published 2011)
# Where no end group is shown, it is not given here.
# Legend:
# Experiment in all cases: micro-dilution assay (MBC, LD90)
# Format in all cases: cell-based
# [1] = system: Candida albicans C.a 39 (wild-type)
# Outline: (§1)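 MBC (99.9% killing) and LD90 (90% killing) come from CFU counts normalised to an untreated growth control. Organisms grown in BHI, washed into 10 mM sodium phosphate buffer pH 7.2 at 10^4 cells/ml, then incubated 2 h with hβD2 (final 0.0125–100 mg/l) before plating.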
# [2] = system: Proteus mirabilis ATCC 21100
# Outline: as §1
# [3] = system: Corynebacterium amycolatum RV A2/97
# Outline: as §1
# [4] = system: Enterobacter aerogenes Va 12738/03 (wild-type)
# Outline: as §1
# [5] = system: Cryptococcus neoformans ATCC 62066
# Outline: as §1
# [6] = system: Serratia marcescens NCTC 10211
# Outline: as §1
# [7] = system: Klebsiella pneumoniae ATCC 700603 ESBL
# Outline: as §1
# [8] = system: Stenotrophomonas maltophilia ATCC 17666
# Outline: as §1
# [9] = system: Proteus vulgaris ATCC 13315
# Outline: as §1
# [10] = system: Staphylococcus aureus (MRSA 355) (wild-type)
# Outline: as §1
# [11] = system: E. coli (ESBI 4) Va 10866/02 (wild-type)
# Outline: as §1
# [12] = system: Enterobacter cloacae ATCC 13047
# Outline: as §1
# [13] = system: Acinetobacter genosp. 3 ATCC 19004
# Outline: as §1
# [14] = system: Serratia marcescens Mero 060/148 (wild-type)
# Outline: as §1
# [15] = system: Candida parapsilosis ATCC 90018
# Outline: as §1
substance,measurement,setting,value
"human β-defensin-2 (GIGDPVTCLKSGAICHPVFCPRRYKQIGTCGLPGTKCCKKP; ends and bridges not checked; cysteine pairing not given here) [hβD2, recombinant hβD2]",LD 90 = μg/ml 90% killing,[1],12.5 µg/mL
same,MBC = μg/ml 99.9% killing,[1],50 µg/mL
same,LD 90 = μg/ml 90% killing,[2],50 µg/mL
same,MBC = μg/ml 99.9% killing,[2],>100 µg/mL
same,LD 90 = μg/ml 90% killing,[3],6.25 µg/mL
same,MBC = μg/ml 99.9% killing,[3],25 µg/mL
same,LD 90 = μg/ml 90% killing,[4],6.25 µg/mL
same,MBC = μg/ml 99.9% killing,[4],25 µg/mL
same,LD 90 = μg/ml 90% killing,[5],0.78 µg/mL
same,MBC = μg/ml 99.9% killing,[5],12.5 µg/mL
same,LD 90 = μg/ml 90% killing,[6],50 µg/mL
same,MBC = μg/ml 99.9% killing,[6],100 µg/mL
same,LD 90 = μg/ml 90% killing,[7],25 µg/mL
same,MBC = μg/ml 99.9% killing,[7],100 µg/mL
same,LD 90 = μg/ml 90% killing,[8],6.25 µg/mL
same,MBC = μg/ml 99.9% killing,[8],50 µg/mL
same,LD 90 = μg/ml 90% killing,[9],3.125 µg/mL
same,MBC = μg/ml 99.9% killing,[9],12.5 µg/mL
same,LD 90 = μg/ml 90% killing,[10],25 µg/mL
same,MBC = μg/ml 99.9% killing,[10],100 µg/mL
same,LD 90 = μg/ml 90% killing,[11],3.125 µg/mL
same,MBC = μg/ml 99.9% killing,[11],12.5 µg/mL
same,LD 90 = μg/ml 90% killing,[12],25 µg/mL
same,MBC = μg/ml 99.9% killing,[12],100 µg/mL
same,LD 90 = μg/ml 90% killing,[13],0.2 µg/mL
same,MBC = μg/ml 99.9% killing,[13],0.78 µg/mL
same,LD 90 = μg/ml 90% killing,[14],50 µg/mL
same,MBC = μg/ml 99.9% killing,[14],100 µg/mL
same,LD 90 = μg/ml 90% killing,[15],12.5 µg/mL
same,MBC = μg/ml 99.9% killing,[15],25 µg/mL
